Data published in US20260158015A1 (Universite De Bordeaux, priority 2021, published 2026).

Assays:
[1] = tested on: lentiviral vectors pseudotyped with the SARS-CoV-2 Spike protein (CoV-2 LV); assay: microbe, parasite or virus in culture; assay type: cell-based
VSVg pseudotyped LV = assay type: cell-based
[2] = MTT cytotoxicity (CC50) in 293-ACE2 cells; assay type: cell-based; details: human, four-parameter sigmoidal fit, unit inferred
Procedure: (§1) MTT cell viability assay was performed following furnisher protocols. Cells were seeded at the density of 20,000 cells/well in a 96 well plate containing 100 μL complete DMEM (Gibco, USA) supplemented with 10% FBS (Gibco, USA) and 1% Penstrep (Gibco, USA). Cells were incubated for 12 hours at 37° C. in humidified 5% CO2 incubator for adherence. After 12-hour incubation, the media was replaced with fresh media, and cells were treated with compounds. Untreated cells were considered as negative control, DMSO treated cells were considered as the vehicles. After the treatment, cells were incubated at 37° C. in humidified 5% CO2 incubator. 48-hour post-treatment, 20 μL of MTT substrate (5 mg/mL) was added in each well and incubated for 4 additional hours at 37° C. in the dark. The media was then carefully removed, and 492 nm absorbance was measured.

[3] = MTT cytotoxicity (CC50) in A549-ACE2 cells; assay type: cell-based; details: human, A 549-ACE2 cells, four-parameter sigmoidal fit, unit inferred
Procedure: as §1

[4] = MTT cytotoxicity (CC50) in Calu3 cells; assay type: cell-based; details: human, four-parameter sigmoidal fit, unit inferred
Procedure: as §1

[5] = tested on: SARS-CoV-2 reference strain; assay: SARS-CoV-2 replication in A549-ACE2 cells (viral genome copies, RT-qPCR); assay type: cell-based
[6] = tested on: SARS-CoV-2 reference strain; assay: SARS-CoV-2 replication in Calu3 cells (viral genome copies, RT-qPCR); assay type: cell-based
SARS-CoV-2 = SARS-CoV-2 inhibition summarised over all the cell lines; assay type: cell-based; details: Severe acute respiratory syndrome coronavirus 2
[7] = tested on: HEK-293T, A549, Calu3 and Caco2 cell lines

O=S(=O)(c1ccccc1)n1c(-c2cncc(-c3cc4cc(OCc5ccccc5)ccc4n3S(=O)(=O)c3ccccc3)c2)cc2cc(OCc3ccccc3)ccc21 [AB-00011778]
decrease of the viral infectivity (CoV-2 LVs) [1]: 40 to 80%
IC50 ([1]; Severe acute respiratory syndrome coronavirus 2, 293-ACE2 cells, apparent IC50, unit inferred): 1000 nM
effect on the VSVg LVs infectivity (VSVg pseudotyped LV): without significant effect
CC50 at 48 h [2]: > 50 µM
CC50 at 48 h [3]: > 30 µM
CC50 at 48 h [4]: > 30 µM
comparative efficiency in inhibiting the SARS-CoV-2 replication [5]: more efficient than the Ritonavir molecule
IC50 ([5]; Severe acute respiratory syndrome coronavirus 2, A549-ACE2, A 549-ACE2 cells, apparent IC50, unit inferred): 250 nM
IC50 ([6]; Severe acute respiratory syndrome coronavirus 2, Calu-3, SARS-CoV-2 reference strain, 24 hours, read-out: concentration giving 50% inhibition of the viral replication): ~1000 nM
IC50 ([6]; Severe acute respiratory syndrome coronavirus 2, Calu-3, apparent IC50, unit inferred, read-out: IC50): 1000 nM
inhibition at 1 µM (SARS-CoV-2; at 1 μM, pulmonary A549-ACE2 and Calu3 cells, read-out: inhibition of virus replication): 40 to 60%
IC50 (SARS-CoV-2; read-out: IC50 among all the cell lines): 250 to 5000 nM
cytotoxicity in various cell lines ([7]; various cell lines, no concentration stated): without showing significant cyto-toxicity
cytotoxicity (MTT assay) ([7]; within the 0-50 μM range, HEK-293T, A549, Calu3 and Caco2): no or poor cytotoxicity

CC(C)c1nc(CN(C)C(=O)N[C@H](C(=O)N[C@@H](Cc2ccccc2)C[C@H](O)[C@H](Cc2ccccc2)NC(=O)OCc2cncs2)C(C)C)cs1 [Ritonavir, reference compound]
comparative efficiency in inhibiting the SARS-CoV-2 replication [5]: AB-00011778 was more efficient than the Ritonavir molecule
